Assay results published in patent US11344488B2 (TAKASAGO INTERNATIONAL CORPORATION, priority 2017, dated 2022).

Legend:
human TRPM8 = target: T1, human TRPM8 (Homo sapiens, UniProt Q7Z2W7); assay: Evaluation of cooling intensity (TRPM8 activity evaluation), calcium fluorescence in human TRPM8 stable expression cells; assay type: cell-based; conditions: TRPM8 activation action, Fluo4-AM fluorescence, 0.1 μM to 1000 μM, 32° C.
T1 construct: The full-length human TRPM8 gene was amplified from plasmid RC220615 (manufactured by Origene) using a PCR method; host or cells: Flp-In T-REx 293 cells ('Flp-In293293 cells' [sic]), pcDNA5/FRT/TO, doxycycline-induced
Experimental: The full-length human TRPM8 gene was amplified from plasmid RC220615 (manufactured by Origene) using a PCR method. The obtained PCR product was subcloned into pcDNA5/FRT/TO (manufactured by Thermo Fisher Scientific K.K.), and then it was introduced into Flp-In293293 cells (manufactured by Thermo Fisher Scientific K.K.) by using a Flp-InT-REx system (manufactured by Thermo Fisher Scientific K.K.), so that a human TRPM8 stable expression cell line was prepared.
The cultured human TRPM8 stable expression cells were seeded at a ratio of 50,000 cells/well to a poly-D-lysine-coated 96-well microplate (manufactured by Corning Incorporated), 1 μg/mL of doxycycline (manufactured by Takara Bio Inc.) was added thereto, and then the seeded cells were cultured at 37° C. for one night, so that the expression of the human TRPM8 was induced.
The culture solution was replaced with a buffer solution, and then, a fluorescent calcium indicator (Fluo4-AM: manufactured by Dojindo Laboratories) was added thereto, the cells were incubated at 37° C. for 30 minutes, and they were transferred to a fluorescent microplate reader (FlexStation3: manufactured by Molecular Devices, LLC.). Each of the compounds obtained in Examples and comparative compounds was added in a final concentration range of 0.1 μM to 1000 μM, and the changes in fluorescence having a wavelength of 525 nm when excited at a wavelength of 485 nm were measured at a device temperature of 32° C., and then EC50 values were determined.

oral cavity = assay: Sensory evaluation of 30 ppm aqueous solutions in the mouth by four flavorists; assay type: in vivo, human
Experimental: The evaluation was performed by four flavorists. The aqueous solution was taken into the mouth and spat out after the mouth was rinsed, and cooling intensity, cool-feeling persistence, and quality of a cool-feeling in the oral cavity were evaluated.

T1 sequence (Q7Z2W7 whole entry): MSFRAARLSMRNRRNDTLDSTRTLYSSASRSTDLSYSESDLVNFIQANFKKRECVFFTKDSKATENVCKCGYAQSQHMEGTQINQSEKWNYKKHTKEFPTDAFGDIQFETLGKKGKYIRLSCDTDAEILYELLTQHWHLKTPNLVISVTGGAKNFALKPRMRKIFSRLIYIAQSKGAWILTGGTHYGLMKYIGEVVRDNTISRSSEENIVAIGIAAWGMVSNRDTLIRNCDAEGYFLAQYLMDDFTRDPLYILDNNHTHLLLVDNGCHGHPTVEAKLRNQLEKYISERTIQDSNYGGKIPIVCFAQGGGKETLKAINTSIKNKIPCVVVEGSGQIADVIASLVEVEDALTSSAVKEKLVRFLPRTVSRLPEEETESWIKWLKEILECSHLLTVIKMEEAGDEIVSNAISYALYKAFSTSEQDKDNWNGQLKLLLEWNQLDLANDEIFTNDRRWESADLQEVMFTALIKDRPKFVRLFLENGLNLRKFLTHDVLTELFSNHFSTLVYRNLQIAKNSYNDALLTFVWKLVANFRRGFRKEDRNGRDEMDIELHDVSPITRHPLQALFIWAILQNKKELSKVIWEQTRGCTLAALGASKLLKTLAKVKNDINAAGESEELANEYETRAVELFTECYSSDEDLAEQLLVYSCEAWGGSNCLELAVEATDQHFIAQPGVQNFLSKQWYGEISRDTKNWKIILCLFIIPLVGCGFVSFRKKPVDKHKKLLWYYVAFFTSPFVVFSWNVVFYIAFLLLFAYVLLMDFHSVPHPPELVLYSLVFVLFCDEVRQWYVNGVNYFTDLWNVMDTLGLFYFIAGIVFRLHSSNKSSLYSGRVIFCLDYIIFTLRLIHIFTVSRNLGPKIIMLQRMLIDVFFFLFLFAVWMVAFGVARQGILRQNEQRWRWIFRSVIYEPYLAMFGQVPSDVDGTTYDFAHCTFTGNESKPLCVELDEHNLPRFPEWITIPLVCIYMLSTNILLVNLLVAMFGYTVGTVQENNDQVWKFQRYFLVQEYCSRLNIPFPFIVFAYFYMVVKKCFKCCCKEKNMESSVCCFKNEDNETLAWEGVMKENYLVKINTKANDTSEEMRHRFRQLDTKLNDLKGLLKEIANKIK

SMILES | EC50 (human TRPM8) [µM] | melting point [°C] | also measured
CNC(=O)[C@@H]1[C@@H](C)CCCC1(C)C (stereo in doubt) [N,2,2,6-tetramethylcyclohexanecarboxamide, reference compound] | 110 | – | –
C[C@H]1CCCC(C)(C)[C@@H]1C(=O)NC[C@H](O)c1ccccc1 [(1R, 6S)-10-5, (1R, 6S)-N-((R)-2-hydroxy-2-phenylethyl)-2,2,6-trimethylcyclohexane-1-carboxamide] | 3.96 | – | –
C[C@H]1CCCC(C)(C)[C@@H]1C(=O)NCCc1ccc(O)c(O)c1 [(1R, 6S)-10-12] | 2.55 | 75 to 77 | –
COc1ccc(CCNC(=O)[C@@H]2[C@@H](C)CCCC2(C)C)cc1OC [(1R, 6S)-10-13] | 7.72 | – | –
C[C@H]1CCCC(C)(C)[C@@H]1C(=O)NCc1ccsc1 [(1R, 6S)-10-23] | 3.48 | – | –
C[C@H]1CCCC(C)(C)[C@@H]1C(=O)Nc1ccc(O)cc1 [(1R, 6S)-10-27] | 6.14 | – | –
C[C@H]1CCCC(C)(C)[C@@H]1C(=O)Nc1ccc2c(c1)OCO2 [(1R, 6S)-10-33] | 3.75 | – | –
COC(=O)c1ccc(NC(=O)[C@@H]2[C@@H](C)CCCC2(C)C)cc1 [(1R, 6S)-10-38] | 5.76 | – | –
C[C@H]1CCCC(C)(C)[C@@H]1C(=O)Nc1ccncc1 [(1R, 6S)-10-43] | 15 | – | –
C[C@@H]1CCCC(C)(C)[C@H]1C(=O)NCC(O)c1ccccc1 (stereo partly drawn) [(1S, 6R)-10-4, (1S, 6R)-N-(2-hydroxy-2-phenylethyl)-2,2,6-trimethylcyclohexane-1-carboxamide] | 6.36 | 96 to 99 | –
C[C@@H]1CCCC(C)(C)[C@H]1C(=O)NC[C@H](O)c1ccccc1 [(1S, 6R)-10-5, (1S, 6R)-N-((R)-2-hydroxy-2-phenylethyl)-2,2,6-trimethylcyclohexane-1-carboxamide] | 7.68 | 105 to 110 | –
C[C@@H]1CCCC(C)(C)[C@H]1C(=O)NC[C@@H](O)c1ccccc1 [(1S, 6R)-10-6, (1S, 6R)-N-((S)-2-hydroxy-2-phenylethyl)-2,2,6-trimethylcyclohexane-1-carboxamide] | 5.98 | – | –
C[C@@H]1CCCC(C)(C)[C@H]1C(=O)NCCc1ccc(O)cc1 [(1S, 6R)-10-8, (1S, 6R)-N-(4-hydroxyphenethyl)-2,2,6-trimethylcyclohexane-1-carboxamide] | 5.9 | 180 to 182 | –
COc1ccc(CNC(=O)C2[C@@H](C)CCCC2(C)C)cc1 (stereo partly drawn) [(1S, 6R)-10-28] | 2.42 | – | –
CCNC(=O)C(C)(C(C)C)C(C)C [WS-23, reference compound] | 23.1 | – | –

Molecules with a lower EC50 (human TRPM8), results first:

EC50 (human TRPM8) [µM] | melting point [°C] | SMILES | also measured
2.1 | – | C[C@H]1CCCC(C)(C)[C@H]1C(=O)NCC(=O)c1ccccc1 [(1S)-10-10, (1S, 6S)-2,2,6-trimethyl-N-(2-oxo-2-phenylethyl) cyclohexane-1-carboxamide] | –
1.97 | – | C[C@H]1CCCC(C)(C)[C@@H]1C(=O)NCc1cccs1 [(1R, 6S)-10-22] | –
1.77 | – | C[C@H]1CCCC(C)(C)[C@@H]1C(=O)Nc1ccc(CC#N)cc1 [(1R, 6S)-10-42] | –
1.74 | – | C[C@H]1CCCC(C)(C)C1C(=O)OC[C@@H](O)c1ccccc1 (stereo partly drawn) [(1R, 6S)-10-51] | –
1.67 | 85 to 87 | C[C@H]1CCCC(C)(C)[C@@H]1C(=O)Nc1ccc(CCO)cc1 [(1R, 6S)-10-36] | –
1.61 | – | CCNC(=O)[C@@H]1C[C@H](C)CCC1C(C)C (stereo partly shown) [WS-3, reference compound] | –
1.59 | – | COc1ccc(NC(=O)[C@@H]2[C@@H](C)CCCC2(C)C)cc1 [(1R, 6S)-10-28] | –
1.19 | 178 to 180 | C[C@H]1CCCC(C)(C)[C@@H]1C(=O)NCCc1ccc(O)cc1 [(1R, 6S)-10-8, (1R, 6S)-N-(4-hydroxyphenethyl)-2,2,6-trimethylcyclohexane-1-carboxamide] | –
1.19 | – | CC(=O)c1ccc(NC(=O)[C@@H]2[C@@H](C)CCCC2(C)C)cc1 [(1R, 6S)-10-35] | –
1.11 | – | C[C@H]1CCCC(C)(C)[C@@H]1C(=O)NCC(=O)c1ccccc1 [(1R)-10-10, (1R, 6S)-2,2,6-trimethyl-N-(2-oxo-2-phenylethyl) cyclohexane-1-carboxamide] | –
1.06 | – | CSc1ccc(NC(=O)[C@@H]2[C@@H](C)CCCC2(C)C)cc1 [(1R, 6S)-10-41] | –
0.73 | – | CCOC(=O)CNC(=O)[C@@H]1C[C@H](C)CCC1C(C)C (stereo partly shown) [WS-5, reference compound] | –
0.6 | 95 to 98 | C[C@H]1CCCC(C)(C)[C@@H]1C(=O)NCC(O)c1ccccc1 (stereo partly drawn) [(1R, 6S)-10-4, (1R, 6S)-N-(2-hydroxy-2-phenylethyl)-2,2,6-trimethylcyclohexane-1-carboxamide] | –
0.59 | 79 to 82 | C[C@H]1CCCC(C)(C)[C@@H]1C(=O)NCCc1ccccc1 [(1R, 6S)-10-1, (1R, 6S)-2,2,6-trimethyl-N-phenethylcyclohexane-1-carboxamide] | cool-feeling persistence (oral cavity; 30 ppm aqueous solution): ≥ 30 min; cooling intensity (oral cavity; 30 ppm aqueous solution): very strong; cooling intensity compared with N,2,2,6-tetramethylcyclohexanecarboxamide, 1-menthol and WS-3 (oral cavity; 30 ppm aqueous solutions): apparently stronger; cooling intensity compared with WS-5 (oral cavity; 30 ppm aqueous solutions): stronger
0.55 | 107 to 111 | C[C@H]1CCCC(C)(C)[C@@H]1C(=O)NC[C@@H](O)c1ccccc1 [(1R, 6S)-10-6, (1R, 6S)-N-((S)-2-hydroxy-2-phenylethyl)-2,2,6-trimethylcyclohexane-1-carboxamide] | –
